For test [1], the target named is muscarinic cholinergic receptor. The class given is binding, rat. The note with it: rat cerebral cortex, ^3 H-QNB 0.25 nM, 25° C., 120 minutes, pH 7.4.
The target is the same in test [2]. In words: [^3 H]-Cis-methyldioxolane (^3 H-CD) Binding Assay (High Affinity). To be noted: rat cerebral cortex, ^3 H-CD 1.0 nM, 25° C., 120 minutes, pH 7.4; high affinity agonist binding.

Where “and” joins values, the source holds several entries; their conditions need not be identical. Equal entries are not always repeated. Structures can show the parent of a compound that is named as a salt. Where two headings read alike, the source gives them in different places.

Take `CCN(CC)CC#CCN1CCC(C)C1=O` (racemic) [Racemic 1-[4-(1-Diethylamino)-2-butynyl]-3-methyl-2-pyrrolidinone]: the Ki in test [1] was 6 µM; in test [2], 5.1 µM.
For `CC1CCN(CC#CCN(C)C)C1=O` (racemic) [Racemic 1-[4-(1-Dimethylamino)-2-butynyl]-3-methyl-2-pyrrolidinone] the same measures were 21 µM and 0.41 µM.
`CC1CCN(CC#CCN2CCC2)C1=O` (racemic) [Racemic 1-[4-(1-azetidinyl)-2-butynyl-3-methyl-2-pyrrolidinone, Racemic 1-[4-(1-azetidinyl)-2-butynyl]-3-methyl-2-pyrrolidinone]: the Ki in test [1] stood at 2 µM; in test [2], 0.054 µM.
With `CC1CCN(CC#CCn2ccnc2)C1=O` (racemic) [Racemic 1-[4-(1H-imidazol-1-yl)-2-butynyl]-3-methyl-2-pyrrolidinone], the Ki in test [1] was determined as 6.7 µM; in test [2], 0.057 µM.
For `CN(C)CC#CCN1CCC(C)(O)C1=O` (racemic) [Racemic-1-[4-Dimethylamino)-2-butynyl]-3-hydroxy-3-methyl-2-pyrrolidinone, Racemic 1-[4-(Dimethylamino)-2-butynyl]-3-hydroxy-3-methyl-2-pyrrolidinone] the same measures were above 100 µM and above 100 µM.
`CC1(O)CCN(CC#CCN2CCCC2)C1=O` (racemic) [Racemic-3-Hydroxy-3-methyl-1-[4-(1-pyrrolidinyl)-2-butynyl]-2-pyrrolidinone, Racemic 3-hydroxy-3-methyl-1-[4-(1-pyrrolidinyl) 2-butynyl]-2-pyrrolidinone]: the Ki is 8.6 µM in test [1] and 5.7 µM in test [2].
Turning to `O=C1C(O)CCN1CC#CCn1ccnc1` (stereo not drawn) [1-[4-(1H-Imidazol-1-yl)-2-butynyl]-3-hydroxy-2-pyrrolidinone], the values for the Ki in test [1] and in test [2] were above 100 µM and 2 µM, respectively.
For `O=C(NCC#CCN1CCCC1)C(F)(F)F` [2,2,2-Trifluoro-N-[4-(1-pyrrolidinyl)-2-butynyl]acetamide monohydrochloride] the same measures were 18.5 µM and 8.88 µM.
For `NCC#CCN1CCCC1` [4-(1-Pyrrolidinyl)-2-butyn-1-amine dihydrochloride] the same measures were above 100 µM and 13 µM.
For `CC(C)(C)[Si](C)(C)O[C@@H]1CCN(CC#CCN2CCC2)C1=O` [(R)-1-[4-(1-Azetidinyl)-2-butynyl]-3-[[(1,1-dimethylethyl)dimethylsilyl]oxy]-2-pyrrolidinone] the same measures were above 100 µM and above 100 µM.
As for `CS[C@@H]1CCN(CC#CCN(C)C)C1=O` [(R)-1-[4-(Dimethylamino)-2-butynyl]-3-(methylthio)-2-pyrrolidinone], the results for the Ki in test [1] and in test [2] were 108 µM and 6.1 µM, respectively.
For the compound `C[C@@H]1CCN(CC#CCN(C)C)C1=O` [(R)-1-[4-(Dimethylamino)-2-butynyl]-3-methyl-2-pyrrolidinone], the inhibition constant (Ki) in test [1] is 7.7 µM; in test [2] it was 0.073 µM.
Turning to `CN(C)CC#CCN1CC[C@@H](O)C1=O` [(R)-1-[4-Dimethylamino)-2-butynyl-3-hydroxy-2-pyrrolidinone], the Ki in test [1] was found to be 105 µM; in test [2] it was 0.54 µM.
On to `CN(C)CC#CCN1CC[C@@H](OC(=O)C(C)(C)C)C1=O` [(R)-2,2-Dimethylpropanoic acid 1-[4-(dimethylamino)-2-butynyl]-2-oxo-3-pyrrolidinyl ester], for which the inhibition constant (Ki) in test [1] turned out to be 404 µM.
Regarding `CC(C)(C)C(=O)O[C@@H]1CCN(CC#CCN2CCCC2)C1=O` [(R)-2,2-Dimethylpropanoic acid 2-oxo-1-[4-(1-pyrrolidinyl)-2-butynyl]-3-pyrrolidinyl ester], the Ki in test [1] was 10.2 µM; in test [2] it was 0.5 µM.
For `CC(C)C(=O)O[C@@H]1CCN(CC#CCN2CCCC2)C1=O` [(R)-2-Methylpropanoic acid 2-oxo-1-[4-(1-pyrrolidinyl)-2-butynyl]-3-pyrrolidinyl ester], in that order: 87 µM and 0.135 µM.
On to `CC(=O)O[C@@H]1CCN(CC#CCN(C)CCO)C1=O` [(R)-3-(Acetyloxy)-1-[4-[2-(hydroxyethyl)methylamino]-2-butynyl]-2-pyrrolidinone], for which the Ki is above 100 µM in test [1] and 28.3 µM in test [2].
For `CS[C@@H]1CCN(CC#CCN2CCCC2)C1=O` [(R)-3-(Methylthio)-1-[4-(1-pyrrolidinyl)-2-butynyl]-2-pyrrolidinone], in that order: 3.6 µM and 1.4 µM.
On to `N[C@@H]1CCN(CC#CCN2CCCC2)C1=O` [(R)-3-Amino-1-[4-(1-pyrrolidinyl)-2-butynyl]-2-pyrrolidinone dihydrochloride], for which the Ki in test [1] amounted to 6.1 µM; in test [2] it was 0.35 µM.
For `CN(C)CC#CCN1CC[C@@H](N)C1=O` [(R)-3-Amino-1-[4-(dimethylamino)-2-butynyl]-2-pyrrolidinone dihydrochloride] the same measures were above 100 µM and 0.89 µM.
As to `[N-]=[N+]=N[C@@H]1CCN(CC#CCN2CCCC2)C1=O` [(R)-3-Azido-1-[4-(1-pyrrolidinyl)-2-butynyl]-2-pyrrolidinone], the Ki in test [1] was 28 µM; in test [2], 0.21 µM.
As for `CN(C)CC#CCN1CC[C@@H](N=[N+]=[N-])C1=O` [(R)-3-Azido-1-[4-(dimethylamino)-2-butynyl]-2-pyrrolidinone], the Ki in test [1] was above 100 µM; in test [2] it was 0.5 µM.
For `O=C1[C@H](O)CCN1CC#CCN1CCCC1` [(R)-3-Hydroxy-1-[4-(1-pyrrolidinyl)-2-butynyl]-2-pyrrolidinone], the Ki is 3.4 µM in test [1] and 0.125 µM in test [2].
For `CN(CC#CCN1CC[C@@H](O)C1=O)CCO` [(R)-3-Hydroxy-1-[4-[(2-hydroxyethyl)methylamino]-2-butynyl]-2-pyrrolidinone] the same measures were above 100 µM and 1.8 µM.
With `CN(CC#CCN1CC[C@@H](O)C1=O)CCCCO` [(R)-3-Hydroxy-1-[4-[(4-hydroxybutyl)methylamino]-2-butynyl]-2-pyrrolidinone], the values for the Ki in test [1] and in test [2] were above 100 µM and 1.45 µM, respectively.
Take `CC(C)(C)C(=O)O[C@@H]1CCN(CC#CC[N+](C)(C)C)C1=O` [(R)-3-[3-(2,2-Dimethyl-1-oxopropoxy)-2-oxo-1-pyrrolidinyl]-N,N, N-trimethyl-2-butyn-1-aminium iodide]: the Ki was above 100 µM in test [1] and 1.22 µM in test [2].
For `CC(C)(C)[Si](C)(C)O[C@@H]1CCN(CC#CCn2ccnc2)C1=O` [(R)-3-[[(1,1-Dimethylethyl)-dimethylsilyl]oxy]-1-[4-(1H-imidazol-1-yl)-2-butynyl]-2-pyrrolidinone], in that order: above 100 µM and 14 µM.
For `C[N+](C)(C)CC#CCN1CC[C@@H](N=[N+]=[N-])C1=O` [(R)-4-(3-Azido-2-oxo-1-pyrrolidinyl)-N,N,N-trimethyl-2-butyn-1-aminium iodide] the same measures were 0.8 µM and 0.039 µM.
For `CCCCCCCCCC(=O)O[C@@H]1CCN(CC#CC[N+](C)(C)C)C1=O` [(R)-4-[2-Oxo-3-[(1-oxodecyl)-oxy]-1-pyrrolidinyl]-N,N, N-trimethyl-2-butyn-1-aminium iodide], in that order: 0.2 µM and 0.05 µM.
For the compound `COC(=O)O[C@@H]1CCN(CC#CCN(C)C)C1=O` [(R)-Carbonic acid 1-[4-(dimethylamino)-2-butynyl]-2-oxo-3-pyrrolidinyl methyl ester monohydrochloride], the Ki in test [1] worked out at 52 µM; in test [2], 3.07 µM.
Regarding `CCCCCCCCOC(=O)O[C@@H]1CCN(CC#CCN(C)C)C1=O` [(R)-Carbonic acid 1-[4-(dimethylamino)-2-butynyl]-2-oxo-3-pyrrolidinyl octyl ester], the inhibitory constant (Ki) was determined as 1.5 µM in test [1] and 1.04 µM in test [2].
As to `O=C(OCc1ccccc1)O[C@@H]1CCN(CC#CCN2CCCC2)C1=O` [(R)-Carbonic acid 2-oxo-1-[4-(1-pyrrolidinyl)-2-butynyl]-3-pyrrolidinyl phenylmethyl ester], the Ki in test [1] came out at 1.4 µM; in test [2], 0.11 µM.
For `COC(=O)O[C@@H]1CCN(CC#CCN2CCCC2)C1=O` [(R)-Carbonic acid methyl 2-oxo-1-[4-(1-pyrrolidinyl)-2-butynyl]-3-pyrrolidinyl ester], in that order: 27.3 µM and 0.35 µM.
For the compound `CCCCCCCCOC(=O)O[C@@H]1CCN(CC#CCN2CCCC2)C1=O` [(R)-Carbonic acid octyl 2-oxo-1-[4-(1-pyrrolidinyl)-2-butynyl]-3-pyrrolidinyl ester], the Ki in test [1] was 0.1 µM; in test [2] it was 0.076 µM.
For `CCCCCCCCCC(=O)O[C@@H]1CCN(CC#CCN(C)C)C1=O` [(R)-Decanoic acid 1-[4-(dimethylamino)-2-butynyl]-2-oxo-3-pyrrolidinyl ester] the same measures were above 100 µM and 0.73 µM.
Turning to `CCCCCCCCCC(=O)O[C@@H]1CCN(CC#CCN2CCCC2)C1=O` [(R)-Decanoic acid 2-oxo-1-[4-(1-pyrrolidinyl)-2-butynyl]-3-pyrrolidinyl ester], the Ki is 0.2 µM in test [1] and 0.097 µM in test [2].
For the compound `CC(C)C(=O)O[C@@H]1CCN(CC#CC[N+](C)(C)C)C1=O` [(R)-N,N, N-Trimethyl-4-[3-(2-methyl-1-oxopropoxy)-2-oxo-1-pyrrolidinyl]-2-butyn-1 aminium iodide], the values for the Ki in test [1] and in test [2] were 45 µM and 0.24 µM, respectively.
`CC(C)C(=O)O[C@H]1CCN(CC#CCN(C)C)C1=O` [(S)-2-Methylpropanoic acid 1-[4-(dimethylamino)-2-butynyl]-2-oxo-3-pyrrolidinyl ester]: affinity in test [1] was put at a Ki of 610 µM.
On the same count and under the same terms, under `COC(=O)O[C@H]1CCN(CC#CCN2CCCC2)C1=O` [(S)-Carbonic acid methyl 2-oxo-1-[4-(1-pyrrolidinyl)-2-butynyl]-3-pyrrolidinyl ester] stands 5.4 µM and 10.4 µM.
